The structures appear in SMILES notation. pIC50: −log10 of the molar value.

Series [1] relates to Bax, Bcl-2, cytochrome C and caspase-3. The series can be described thus: Western blot of apoptosis-related proteins. The format is cell-based, human. Particulars: HepG2, 72 h, concentration-dependent. The procedure:
HepG2 cells were incubated with different doses of 6k for 72 h. Cells were collected, centrifuged, and washed two times with ice-cold PBS. The pellet was then re-suspended in lysis buffer. After the cells were lysed on ice for 20 min, lysates were centrifuged at 13000 g at 4 °C for 15 min. The protein concentration in the supernatant was determined using the BCA protein assay reagents. Equal amounts of protein (20 μg) were resolved using sodium dodecyl sulfate-polyacrylamide gel electrophoresis (SDS-PAGE) (10–12% acrylamide gels) and transferred to PVDF membrane. Membranes were blocked for 1 h at room temperature. Membranes were then incubated with primary antibodies against p-cdc25c, cdc2, cyclin B1, Bax, Bcl-2, cytochrome C, caspase-3, VDAC1 and β-actin, the membrane being gently rotated overnight at 4 °C. The bound antibodies were detected using horseradish peroxidase (HRP)-conjugated second antibodies and visualised by the enhanced chemiluminescent reagent.
A general note: Immunoblotting shows a protein as a band on a membrane.

The nature of series [2]: LWP coefficient (log D) measurement, shake flask. The format is physicochemical. Particulars: pH 7.4. The procedure: Berberine, 3c and 6k of 1 mg were dissolved in three centrifugal tubes (5 ml) containing phosphate buffer (pH 7.4)-saturated 1-octanol solution (2 mL), followed by the addition of 1-octanol saturated PBS (2 mL). Each tube was vigorously mixed for 1 min and then shaken for 6 h at a speed of 1000 rpm at 37 °C. The mixtures were then centrifuged. 1 mL of 1-octanol phase and 1 mL of buffer were separately collected. Each phase was diluted to a suitable concentration and analysed by HPLC (Shimadzu DGU-20A3R) on a Shimadzu-GL WondaSil C18-WR column (λ = 254 nm) with an eluent of methanol/water (65/35, v/v, 1.0 ml/min). The log D value for each compound was calculated from the ratio of the peak areas using the following equation: Log D = log (Areaoct × x/Areabuf × y). x, y is the dilution factor.

The nature of series [3]: Aqueous solubility measurement by HPLC. Type of series: physicochemical. The following applies: 25 °C, pH 7.4, aqueous buffer, thermodynamic from solid. The procedure: Berberine, 3c and 6k (5 mg) were dissolved in 1 ml PBS (50 mM, pH 7.4) at 25 °C. The suspension was sonicated for 30 min and then centrifuged at 15000 g for 5 min. The supernatant was filtered through a PTFE filter (0.2 μm) slowly. Then 10 μL filtered solution was injected into the HPLC system (Shimadzu DGU-20A3R) on a Shimadzu-GL WondaSil C18-WR column and quantified using the standard curves made by the corresponding known concentrations of berberine, 3c and 6k. The eluent was methanol/water (65/35, v/v) at a flow rate of 1.0 ml/min with the detection wavelength at 254 nm.

For series [4], the system named is human hepatoma cells including HepG2, Sk-Hep-1 and Huh-7 cells. The series can be described thus: Antiproliferative MTT assay, summary over human hepatoma cells. Particulars: read-out: IC50 values against human hepatoma cells (span over cell lines). Type of series: cell-based. The procedure:
HepG2, Sk-Hep-1, Huh-7, Hep3B and L-02 cells were purchased from Nanjing Key Gen Biotech Co. Ltd. (Nanjing, China). The cytotoxicity of test compounds was determined using an MTT assay. Briefly, the cell lines were incubated at 37 °C in a humidified 5% CO2 incubator for 24 h in 96-microwell plates. After medium removal, 100 μL of culture medium with 0.1% DMSO containing test compounds at different concentrations was added to each well and incubated at 37 °C for another 72 h. The MTT (5 mg/mL in PBS) was added and incubated for another 4 h, the optical density was detected with a microplate reader at 490 nm. The IC50 values were calculated according to the dose-dependent curves. All the experiments were repeated in at least three independent experiments.

With `CCCCCCCCc1c2[n+](cc3c(OCCCCCCCCN4CCN(C)CC4)c(OC)ccc13)CCc1cc3c(cc1-2)OCO3.[Br-]` [Compound 6k, 10-Methoxy-9-((8–(4-methylpiperazin-1-yl)octyl)oxy)-13-octyl-5,6-dihydro-[1,3]dioxolo[4,5-g]isoquinolino[3,2-a]isoquinolin-7-ium bromide], in series [1], the Bax expression result is given as “upregulated Bax expression”, the Bcl-2 expression result was “downregulated Bcl-2 expression”, the caspase-3 result is given as “activated caspase-3” and the “cytochrome C release” value is “promoted cytochrome C release”. For the same molecule, the logD in series [2] worked out at 3.87. The molecule further had a solubility at 30 min in series [3] of 1080 µg/mL. In addition, in series [4], the pIC50 was 5.77 to 6.21.

As a reminder, the logD is the decadic logarithm of the distribution of all forms, ionised or not, between an organic phase and buffer at a given pH. As usually defined, the solubility is the dissolved amount per volume that the medium holds. For orientation: pIC50 means −log10 of the IC50, conventionally taken in molar units.

The values above are taken from PMC9467586, “Development of novel 9-O-substituted-13-octylberberine derivatives as potential anti-hepatocellular carcinoma agents” (Journal of Enzyme Inhibition and Medicinal Chemistry, 2022).
